Results from patent US8664380B2, “Heterocyclic compound and use thereof” (Takeda Pharmaceutical Company Limited, priority 2008, dated 2014).
Structures can show the parent of a compound that is named as a salt.

Tests used:
plasma renin activity = test: Ex vivo plasma renin activity (PRA) test after oral administration; type: in vivo, Macaca fascicularis; conditions: for inhibition at 1 mg/kg: Macaca fascicularis, po, 4 h, read-out: Macaca fascicularis plasma renin activity, PPA inhibitory activity (%, n = 3-7); for Macaca fascicularis plasma renin activity, PPA inhibitory activity (%, n = 3-7): male macaca fascicularis, 1 mg/kg orally in 0.5% methylcellulose, plasma 4 hr after administration, amended with vehicle group
Description: Male macaca fascicularis was used. […] PRA was calculated by the following formula.

Human renin = molecular target: T1, Human renin (Homo sapiens, UniProt P00797); test: Human renin inhibition; angiotensin I formed from angiotensinogen quantified by EIA; conditions: for inhibition at 0.1 µM: read-out: Human renin inhibitory activity, inhibitory activity (%) at 0.1 μM; for Human renin inhibitory activity, inhibitory activity (%) at 0.1 μM: 0.1 μM test compound, substrate human angiotensinogen, 37° C. 30 min
T1 sequence (P00797 67-406): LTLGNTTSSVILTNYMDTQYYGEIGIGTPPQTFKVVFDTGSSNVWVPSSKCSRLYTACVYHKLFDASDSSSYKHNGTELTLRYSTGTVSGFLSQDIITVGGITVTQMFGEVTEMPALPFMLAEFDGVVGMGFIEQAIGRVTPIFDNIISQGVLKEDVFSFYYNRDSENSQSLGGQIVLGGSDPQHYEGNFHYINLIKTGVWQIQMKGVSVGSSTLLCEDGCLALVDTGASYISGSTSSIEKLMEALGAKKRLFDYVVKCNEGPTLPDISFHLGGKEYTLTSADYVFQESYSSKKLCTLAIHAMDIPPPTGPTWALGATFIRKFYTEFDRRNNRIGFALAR
Description: As a substrate for renin activity measurement, the angiotensinogen mentioned in (5) above was used. 1 μl each of the test compound (containing 100% DMSO) was added to each well of a 384-well plate (ABgene). Renin was diluted with a buffer solution for reaction (20 mM sodium phosphate (pH 7.4)) to a concentration of 57 pM, and 14 μl each of the dilution was added to each well. The dilution was left to stand at 37° C. for 10 min, and then 5 μl of each of a 6 μM solution of substrate angiotensinogen was added to each well to initiate the reaction. […] The amount of angiotensin I produced by an enzyme reaction was quantified by Enzyme Immuno Assay (EIA) described below.
Anti-angiotensin I antibody (Peninsula Laboratories Inc.) diluted 5,000-fold with PBS was added to each well of a 384 well black plate (Nalge Nunc International Co., Ltd.) by 25 μl, and left standing overnight at 4° C. to immobilize the antibody in the plate. The antibody solution was removed, PBS solution (100 μl) containing 1% BSA was added to each well, and the mixture was left standing at room temperature for 2 hr for blocking. The blocking solution was removed, and each well was washed 5 times with 100 μl of 0.05% Tween20-PBS. […] Then, a biotinated angiotensin I solution (AnaSpec, 15 μl) prepared to 1.6 nM with a buffer [20 mM tris-hydrochloric acid (pH 7.4), 150 mM sodium chloride, 0.01% BSA, 0.05% Tween20] was added to each well, mixed with a plate mixer and left standing at room temperature for 1 hr. The solutions were removed from each well, and each well was washed 5 times with 100 μl of 0.05% Tween20-PBS. Horseradish peroxydase Streptavidin (PIERCE Biotechnology inc., 25 μl) diluted to 100 ng/ml with a buffer [20 mM tris-hydrochloric acid (pH 7.4), 150 mM sodium chloride, 0.1% BSA, 0.05% Tween 20] was added to each well and the mixture was left standing at room temperature for 30 min. The solutions were removed from each well, and each well was washed 5 times with 100 μl of 0.05% Tween20-PBS. SuperSignal ELISA femto Maximum Sensitivity Substrate (PIERCE Biotechnology Inc.) was added by 25 μl and luminescence intensity was measured by EnVision (Perkin Elmer Inc.). An analytical curve was drawn from the luminescence intensity of wells containing an angiotensin I standard solution, and the amount of angiotensin I produced by an enzyme reaction was calculated and used as an index of renin activity.

Molecule: COCCCCn1c(C(=O)N(CC(C)C)[C@@H]2CNC[C@H](C(O)COC)C2)nc2ccccc21 (stereo partly drawn) [Example 48, N-[(3S,5R)-5-(1-hydroxy-2-methoxyethyl)piperidin-3-yl]-1-(4-methoxybutyl)-N-(2-methylpropyl)-1H-benzimidazole-2-carboxamide dihydrochloride]
- inhibition at 1 mg/kg (plasma renin activity): 78%
- inhibition at 0.1 µM (Human renin): 97%

Molecule: N-{(3S, 5R)-5-[(1S)-1-hydroxypropyl]piperidin-5-yl}-1-(4-methoxybutyl)-N-(2-methylpropyl)-1H-benzimidazole-2-carboxamide dihydrochloride [Example 75-1]
- Macaca fascicularis plasma renin activity, PPA inhibitory activity (%, n = 3-7) (plasma renin activity): 86%
- Human renin inhibitory activity, inhibitory activity (%) at 0.1 μM (Human renin): 95%

Molecule: COCCCCn1c(C(=O)N(CC(C)C)[C@@H]2CNC[C@H]([C@@H](O)COC)C2)nc2ccccc21 [Example 73-1, N-{(3S,5R)-5-[(1R)-1-hydroxy-2-methoxyethyl]piperidin-3-yl}-1-(4-methoxybutyl)-N-(2-methylpropyl)-1H-benzimidazole-2-carboxamide dihydrochloride]
- inhibition at 1 mg/kg (plasma renin activity): 77%
- inhibition at 0.1 µM (Human renin): 96%

Molecule: COCCCCn1c(C(=O)N(CC(C)C)[C@@H]2CNC[C@H](C(C)(C)O)C2)nc2ccccc21 [Example 38, N-[(3S,5R)-5-(1-hydroxy-1-methylethyl)piperidin-3-yl]-1-(4-methoxybutyl)-N-(2-methylpropyl)-1H-benzimidazole-2-carboxamide dihydrochloride]
- inhibition at 0.1 µM (Human renin): 98%

Molecule: COCCCCn1c(C(=O)N(CC(C)C)[C@@H]2CNC[C@H](C(=O)N3CCOCC3)C2)nc2ccccc21 [Example 10, 1-(4-methoxybutyl)-N-(2-methylpropyl)-N-[(3S,5R)-5-(morpholin-4-ylcarbonyl)piperidin-3-yl]-1H-benzimidazole-2-carboxamide dihydrochloride]
- inhibition at 1 mg/kg (plasma renin activity): 72%
- Human renin inhibitory activity, inhibitory activity (%) at 0.1 μM (Human renin): 97%

Molecule: COCCCCn1c(C(=O)N(CC(C)C)[C@@H]2CNC[C@H]([C@H](O)COC)C2)nc2ccccc21 [Example 73-2, N-{(3S,5R)-5-[(1S)-1-hydroxy-2-methoxyethyl]piperidin-3-yl}-1-(4-methoxybutyl)-N-(2-methylpropyl)-1H-benzimidazole-2-carboxamide dihydrochloride]
- inhibition at 1 mg/kg (plasma renin activity): 90%
- inhibition at 0.1 µM (Human renin): 96%

Molecule: CC(C)CN(C(=O)c1nc2ccccn2c1COc1ccccc1)[C@@H]1CNC[C@H](C(=O)N2CCOCC2)C1 [Example 117, N-(2-methylpropyl)-N-[(3S, 5R)-5-(morpholin-4-ylcarbonyl)piperidin-3-yl]-3-(phenoxymethyl)imidazo[1,2-a]pyridine-2-carboxamide dihydrochloride]
- inhibition at 0.1 µM (Human renin): 98%

Molecule: COCCCCn1c(C(=O)N(CC(C)C)[C@@H]2CNC[C@H](C(=O)N3CCOCC3)C2)nc2ccc(F)cc21 [Example 11, 6-fluoro-1-(4-methoxybutyl)-N-(2-methylpropyl)-N-[(3S,5R)-5-(morpholin-4-ylcarbonyl)piperidin-3-yl]-1H-benzimidazole-2-carboxamide dihydrochloride]
- inhibition at 1 mg/kg (plasma renin activity): 89%

Molecule: CCC(O)[C@H]1CNC[C@@H](N(CC(C)C)C(=O)c2nc3ccccc3n2CCCCOC)C1 (stereo partly drawn) [Example 76, N-[(3S, 5R)-5-(1-hydroxypropyl)piperidin-3-yl]-1-(4-methoxybutyl)-N-(2-methylpropyl)-1H-benzimidazole-2-carboxamide dihydrochloride]
- inhibition at 1 mg/kg (plasma renin activity): 79%

Molecule: CCCN(C(=O)c1nc2ccccc2n1CCCCOC)[C@@H]1CNC[C@H](C(=O)N2CCOCC2)C1 [Example 255, 1-(4-methoxybutyl)-N-[(3S,5R)-5-(morpholin-4-ylcarbonyl)piperidin-3-yl]-N-propyl-1H-benzimidazole-2-carboxamide dihydrochloride]
- inhibition at 1 mg/kg (plasma renin activity): 84%

Molecule: COCCCCn1c(C(=O)N(CC(C)C)[C@@H]2CNC[C@H](C(=O)O)C2)nc2ccccc21 [Example 33, (3R,5S)-5-[{[1-(4-methoxybutyl)-1H-benzimidazol-2-yl]carbonyl}(2-methylpropyl)amino]piperidine-3-carboxylic acid dihydrochloride]
- inhibition at 1 mg/kg (plasma renin activity): 77%

Molecule: COCCCCn1c(C(=O)N(CC(C)C)[C@@H]2CNC[C@H](C(=O)N3CCCCC3)C2)nc2ccccc21 [Example 21, 1-(4-methoxybutyl)-N-(2-methylpropyl)-N-[(3S,5R)-5-(piperidin-1-ylcarbonyl)piperidin-3-yl]-1H-benzimidazole-2-carboxamide dihydrochloride]
- inhibition at 1 mg/kg (plasma renin activity): 85%

Molecule: COCCCCn1c(C(=O)N(CC(C)C)[C@@H]2CNC[C@H](C(N)=O)C2)nc2ccccc21 [Example 25, N-[(3S,5R)-5-carbamoylpiperidin-3-yl]-1-(4-methoxybutyl)-N-(2-methylpropyl)-1H-benzimidazole-2-carboxamide dihydrochloride]
- inhibition at 1 mg/kg (plasma renin activity): 79%
- inhibition at 0.1 µM (Human renin): 98%

Molecule: N-{(3S, 5R)-5-[(1R)-1-hydroxypropyl]piperidin-5-yl}-1-(4-methoxybutyl)-N-(2-methylpropyl)-1H-benzimidazole-2-carboxamide dihydrochloride [Example 75-2]
- Macaca fascicularis plasma renin activity, PPA inhibitory activity (%, n = 3-7) (plasma renin activity): 71%
- Human renin inhibitory activity, inhibitory activity (%) at 0.1 μM (Human renin): 90%

Molecule: COCCCn1c(C(=O)N(CC(C)C)[C@@H]2CNC[C@H](C(=O)N3CCOCC3)C2)nc2ccccc21 [Example 85, 1-(3-methoxypropyl)-N-(2-methylpropyl)-N-[(3S, 5R)-5-(morpholin-4-ylcarbonyl)piperidin-3-yl]-1H-benzimidazole-2-carboxamide 1/2 sulfate]
- inhibition at 0.1 µM (Human renin): 97%

Molecule: COCCCCn1c(C(=O)N(CC(C)C)[C@@H]2CNC[C@H](C(C)O)C2)nc2ccccc21 (stereo partly drawn) [Example 42, N-[(3S,5R)-5-(1-hydroxyethyl)piperidin-3-yl]-1-(4-methoxybutyl)-N-(2-methylpropyl)-1H-benzimidazole-2-carboxamide dihydrochloride]
- inhibition at 1 mg/kg (plasma renin activity): 70%

Molecule: COCCCCn1c(C(=O)N(CC(C)C)[C@@H]2CNC[C@H](C(=O)N3CCOCC3)C2)nc2ccc(F)cc21 [Example 12, 6-fluoro-1-(4-methoxybutyl)-N-(2-methylpropyl)-N-[(3S,5R)-5-(morpholin-4-ylcarbonyl)piperidin-3-yl]-1H-benzimidazole-2-carboxamide dihydrochloride]
- inhibition at 0.1 µM (Human renin): 97%

Molecule: COCCCCn1c(C(=O)N(CC(C)C)[C@@H]2CNC[C@H](C(=O)N3CCOCC3)C2)cc2ccccc21 [Example 3, 1-(4-methoxybutyl)-N-(2-methylpropyl)-N-[(3S,5R)-5-(morpholin-4-ylcarbonyl)piperidin-3-yl]-1H-indole-2-carboxamide hydrochloride]
- inhibition at 0.1 µM (Human renin): 96%

Molecule: COCCCCn1c(C(=O)N(CC2CC2)[C@@H]2CNC[C@H](C(=O)N3CCOCC3)C2)nc2ccccc21 [Example 253, N-(cyclopropylmethyl)-1-(4-methoxybutyl)-N-[(3S,5R)-5-(morpholin-4-ylcarbonyl)piperidin-3-yl]-1H-benzimidazole-2-carboxamide dihydrochloride]
- inhibition at 1 mg/kg (plasma renin activity): 77%

Molecule: COCCCCn1c(C(=O)N(CC(C)C)[C@@H]2CNC[C@H](C(=O)OCc3oc(=O)oc3C)C2)nc2ccccc21 [Example 7, (5-methyl-2-oxo-1,3-dioxol-4-yl)methyl (3R,5S)-5-[{[1-(4-methoxybutyl)-1H-benzimidazol-2-yl]carbonyl}(2-methylpropyl)amino]piperidine-3-carboxylate dihydrochloride]
- inhibition at 1 mg/kg (plasma renin activity): 93%

Molecule: COCCCCn1c(C(=O)N(CC(C)C)[C@@H]2CNC[C@H](C(=O)N3CCOCC3)C2)nc2ccc(OC)cc21 [Example 60, 6-methoxy-1-(4-methoxybutyl)-N-(2-methylpropyl)-N-{(3S,5R)-5-(morpholin-4-ylcarbonyl)piperidin-3-yl}-1H-benzimidazole-2-carboxamide dihydrochloride]
- inhibition at 1 mg/kg (plasma renin activity): 85%

Molecule: COCCCCn1c(C(=O)N(CC(C)C)[C@@H]2CNC[C@H](C(=O)N3CCCC3)C2)nc2cc(F)ccc21 [Example 18, 5-fluoro-1-(4-methoxybutyl)-N-(2-methylpropyl)-N-[(3S,5R)-5-(pyrrolidin-1-ylcarbonyl)piperidin-3-yl]-1H-benzimidazole-2-carboxamide dihydrochloride]
- inhibition at 1 mg/kg (plasma renin activity): 89%

Molecule: COCCCCn1c(C(=O)N(CC(C)C)[C@@H]2CNC[C@H](C(=O)N3CCCC3)C2)nc2ccc(OC)cc21 [Example 62, 6-methoxy-1-(4-methoxybutyl)-N-(2-methylpropyl)-N-{(3S,5R)-5-(pyrrolidin-1-ylcarbonyl)piperidin-3-yl}-1H-benzimidazole-2-carboxamide dihydrochloride]
- inhibition at 1 mg/kg (plasma renin activity): 75%

Molecule: COCCOCc1c(C(=O)N(CC(C)C)[C@@H]2CNC[C@H](C(=O)N3CCOCC3)C2)nc2ccccn12 [Example 4, 3-[(2-methoxyethoxy)methyl]-N-(2-methylpropyl)-N-[(3S,5R)-5-(morpholin-4-ylcarbonyl)piperidin-3-yl]imidazo[1,2-a]pyridine-2-carboxamide dihydrochloride]
- inhibition at 0.1 µM (Human renin): 96%

Molecule: COCCCCn1c(C(=O)N(CC(C)C)[C@@H]2CNC[C@H](C(=O)N3CCOCC3)C2)nc2ccccc21 [Example 49, 1-(4-methoxybutyl)-N-(2-methylpropyl)-N-[(3S,5R)-5-(morpholin-4-ylcarbonyl)piperidin-3-yl]-1H-benzimidazole-2-carboxamide methanesulfonate]
- inhibition at 0.1 µM (Human renin): 97%
